Consider two molecules from patent US20240247080A1, “GLP1/GIP/NPY2 RECEPTOR TRIPLE AGONISTS” (Boehringer Ingelheim International GmbH, priority 2022, published 2024).

Read-outs that look alike come from different tables or passages of the source. Starred links: 1 amine or outer side, 2 acyl side, 3 side chain; linkers in the order of their positions; H or OH if unused. Non-standard residues stand in square brackets, D forms with d. Groups on a side chain read outwards from the residue. No end group written: not given here. *: point of attachment. C20 diacid = O=C(O)CCCCCCCCCCCCCCCCCCC(=O)*; γGlu = O=C(O)[C@H](CCC(=O)[*:2])N[*:1]; Aib = CC(C)(N)C(=O)O

One series addresses T1, hGIPR (Homo sapiens, UniProt P48546).
T1 construct: expressed in transfected cells; host or cells: CHO cells carrying a CRE-luciferase reporter gene
T1 sequence (P48546 22-466): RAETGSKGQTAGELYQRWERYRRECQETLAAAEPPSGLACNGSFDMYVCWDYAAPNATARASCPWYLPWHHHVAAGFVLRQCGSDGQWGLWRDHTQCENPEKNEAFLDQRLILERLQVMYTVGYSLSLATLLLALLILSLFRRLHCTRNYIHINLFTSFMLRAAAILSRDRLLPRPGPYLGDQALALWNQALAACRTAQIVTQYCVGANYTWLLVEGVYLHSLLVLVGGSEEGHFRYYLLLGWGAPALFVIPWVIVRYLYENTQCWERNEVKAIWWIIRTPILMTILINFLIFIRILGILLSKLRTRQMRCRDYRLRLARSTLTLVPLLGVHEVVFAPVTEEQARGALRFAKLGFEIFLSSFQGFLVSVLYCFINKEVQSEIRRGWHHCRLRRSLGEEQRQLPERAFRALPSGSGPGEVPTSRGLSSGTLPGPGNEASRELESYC
Kind of series: hGIPR CreLuc reporter gene assay in 0.5% and 100% plasma. The class given is cell-based. As to conditions: CreLuc reporter gene assay. The procedure, abridged:
(§1)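 Agonist EC50s came from 8-concentration curves over four decades, fitted by non-linear variable-slope regression of CRE-driven luciferase luminescence. Cells were exposed 4 h at 37 °C, in buffer with 0.5% human plasma or in 100% plasma; GIPR was expressed in CHO cells, GLP-1R and NPY2R in HEK cells.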
On the technique in general: Reporter assays use an easily measured gene product as a stand-in for the process of interest.

The next series concerns the target T2, hGLP1R (Homo sapiens, UniProt P43220).
T2 construct: expressed in transfected cells; host or cells: HEK-293 cells carrying a CRE-luciferase reporter gene
Kind of series: hGLP1R CreLuc reporter gene assay in 0.5% and 100% plasma. The class given is cell-based. As to conditions: CreLuc reporter gene assay. Summed up:
as §1

A further series addresses T3, hNPY2R (Homo sapiens, UniProt P49146).
T3 construct: expressed in transfected cells; host or cells: HEK-293 cells carrying a CRE-luciferase reporter gene
T3 sequence (P49146 1-381): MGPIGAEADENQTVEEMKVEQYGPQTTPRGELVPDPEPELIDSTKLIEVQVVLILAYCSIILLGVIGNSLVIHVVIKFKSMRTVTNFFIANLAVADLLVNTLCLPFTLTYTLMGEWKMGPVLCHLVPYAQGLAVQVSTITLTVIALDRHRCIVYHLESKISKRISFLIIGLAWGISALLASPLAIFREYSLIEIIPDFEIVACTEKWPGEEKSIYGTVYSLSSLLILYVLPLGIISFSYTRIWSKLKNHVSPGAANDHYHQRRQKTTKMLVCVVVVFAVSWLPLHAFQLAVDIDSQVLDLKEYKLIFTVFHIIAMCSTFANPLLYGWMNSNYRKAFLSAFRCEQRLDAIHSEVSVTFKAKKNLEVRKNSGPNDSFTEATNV
Kind of series: hNPY2R CreLuc reporter gene assay in 0.5% and 100% plasma. The class given is cell-based. As to conditions: CreLuc reporter gene assay. The procedure, abridged: as §1

Series [1] can be described thus: Mouse PK after intravenous application. The class given is in vivo. As to conditions: plasma, mean residence time, intravenous 30-60 nmol/kg, male NMRI mice. How it is done:
Pharmacokinetic parameters of the peptides were determined after intravenous application to NMRI mice. Male NMRI mice were obtained from Janvier Laboratories (France) weighing 30 to 40 g. Mice were housed in standard cages with a 12:12 hour light:dark cycle and standard food and water access ad libitum. Each test peptide was dissolved in 50 mM phosphate buffer (pH 7.4)/3.5% mannitol. Intravenous application of 30-60 nmol/kg was performed via the tail vein. Serial blood samples from conscious mice were collected from the saphenous vein in EDTA-containing vials at different time points up to 56 hours post-dosing. Subsequently, plasma was prepared by centrifugation for 5 min at approximately 5000 rpm and stored at −20° C. until quantification of the peptide plasma levels by liquid chromatography mass spectrometry (LC-MS). Individual plasma concentration—time profiles were analysed by a non-compartmental approach and the resulting pharmacokinetic parameters were calculated.

Where [2] appears, read: 0.5% human plasma, read-out: hGIPR 0.5% hP.
Setting [3] is: 0.5% human plasma, read-out: hGLP1R 0.5% hP.

T2 sequence (P43220 24-463): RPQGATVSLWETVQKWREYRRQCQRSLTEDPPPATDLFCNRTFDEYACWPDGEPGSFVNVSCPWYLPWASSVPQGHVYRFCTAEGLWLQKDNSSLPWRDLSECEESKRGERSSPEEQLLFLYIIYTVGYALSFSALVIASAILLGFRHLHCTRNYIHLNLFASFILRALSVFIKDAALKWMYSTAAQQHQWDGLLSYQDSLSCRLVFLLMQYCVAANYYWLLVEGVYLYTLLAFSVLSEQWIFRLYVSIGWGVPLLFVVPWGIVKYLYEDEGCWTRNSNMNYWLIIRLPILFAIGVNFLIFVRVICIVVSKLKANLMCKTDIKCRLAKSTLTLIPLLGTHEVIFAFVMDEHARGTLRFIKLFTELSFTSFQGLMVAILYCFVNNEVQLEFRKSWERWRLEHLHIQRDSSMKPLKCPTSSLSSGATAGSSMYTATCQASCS

For `CC[C@H](C)[C@H](NC(=O)[C@H](CC(C)C)NC(=O)[C@H](Cc1c[nH]c2ccccc12)NC(=O)[C@H](CCC(=O)O)NC(=O)[C@@H](NC(=O)[C@H](Cc1ccccc1)NC(=O)[C@H](C)NC(=O)C(C)(C)NC(=O)[C@H](CCC(N)=O)NC(=O)[C@H](C)NC(=O)[C@H](CCC(N)=O)NC(=O)[C@H](CCCCN)NC(=O)[C@H](CCC(=O)O)NC(=O)[C@H](CC(C)C)NC(=O)C(C)(C)NC(=O)[C@@H](NC(=O)[C@H](CO)NC(=O)[C@H](Cc1ccc(O)cc1)NC(=O)[C@H](CC(=O)O)NC(=O)[C@H](CO)NC(=O)[C@@H](NC(=O)[C@H](Cc1ccccc1)NC(=O)[C@@H](NC(=O)CNC(=O)[C@H](CCC(=O)O)NC(=O)C(C)(C)NC(=O)[C@@H](N)Cc1ccc(O)cc1)[C@@H](C)O)[C@@H](C)O)[C@@H](C)CC)C(C)C)C(=O)N[C@@H](CCCCNC(=O)[C@@H](N)CCCCNC(=O)CC[C@H](NC(=O)CC[C@H](NC(=O)CC[C@H](NC(=O)CC[C@H](NC(=O)CC[C@H](NC(=O)CC[C@H](NC(=O)CCCCCCCCCCCCCCCCCCC(=O)O)C(=O)O)C(=O)O)C(=O)O)C(=O)O)C(=O)O)C(=O)O)C(=O)NCC(=O)NCC(=O)N1CCC[C@H]1C(=O)N[C@@H](CO)C(=O)N[C@@H](CO)C(=O)NCC(=O)N[C@H](C(=O)N[C@@H](CO)C(=O)N[C@H](C(=O)N[C@@H](CCCNC(=N)N)C(=O)N[C@@H](Cc1c[nH]cn1)C(=O)N[C@@H](Cc1ccc(O)cc1)C(=O)N[C@@H](Cc1ccc(O)cc1)C(=O)N[C@@H](CC(N)=O)C(=O)N[C@@H](Cc1c[nH]c2ccccc12)C(=O)N[C@@H](CC(C)C)C(=O)N[C@H](C(=O)N[C@@H](CCCNC(=N)N)C(=O)N[C@@H](CCC(N)=O)C(=O)N[C@@H](CCCNC(=N)N)C(=O)N[C@@H](Cc1ccc(O)cc1)C(N)=O)[C@@H](C)O)[C@@H](C)CC)C(C)C` [Compound 27, Y-Aib-E-G-T-F-T-S-D-Y-S-I-Aib-L-E-K-Q-A-Q-Aib-A-F-V-E-W-L-I-K(1,3)-GGPSSGVSIRHYYNWLTRQRY-NH2.C20DA-gGlu-gGlu-gGlu-gGlu-gGlu-gGlu-eLys(1,2)], the EC50 at hGIPR (setting [2]) was 170 pM; on hGIPR (100% human plasma, read-out: hGIPR 100% hP), 1110 pM; on hGLP1R (setting [3]), 100 pM; at hNPY2R (100% human plasma, read-out: hNPY2R 100% hP), 21000 pM. The MRT (usually the average time that molecules of a dose stay in the body) in series [1] amounted to 6.7 h.
With “Y[Aib]EGTFTSDYSI[Aib]LEKQAQ[Aib]AFVQWLIK([γGlu-γGlu-γGlu-γGlu-γGlu-γGlu-C20 diacid])GGPSEGASLRHYYNWLTRQRY-NH2 [Compound 223, Y-Aib-E-G-T-F-T-S-D-Y-S-I-Aib-L-E-K-Q-A-Q-Aib-A-F-V-Q-W-L-I-K(1,3)-GGPSEGASLRHYYNWLTRQRY-NH2.C20DA-gGlu-gGlu-gGlu-gGlu-gGlu-gGlu(1,2)]”, the EC50 on hGIPR (setting [2]) worked out at 390 pM; on hGLP1R (setting [3]), 180 pM; on hGLP1R (100% human plasma, read-out: hGLP1R 100% hP), 4390 pM; at hNPY2R (0.5% human plasma, read-out: hNPY2R 0.5% hP) it was 13200 pM. Also, the MRT in series [1] was found to be 8.8 h.
